According to PubChem BioAssay (NCI):
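Five concentrations, 48 hours, 96-well plates. At the TGI there is no net growth.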

Tests used:
Experiment in all cases: NCI tumour cell line growth inhibition, 48 h
[1] = system: NCI-H522 lung
[2] = system: DMS 273 small cell lung
[3] = system: SW-620 colon
[4] = system: MCF7 breast
[5] = system: MALME-3M melanoma
[6] = system: P388/ADR leukemia
[7] = system: COLO 205 colon
[8] = system: UACC-62 melanoma
[9] = system: CCRF-CEM leukemia
[10] = system: SK-MEL-2 melanoma
[11] = system: SN12C renal
[12] = system: RXF 393 renal
[13] = system: LOX IMVI melanoma
[14] = system: EKVX NSCLC
[15] = system: A498 renal
[16] = system: SK-MEL-28 melanoma
[17] = system: HT29 colon
[18] = system: SK-OV-3 ovarian
[19] = system: HCT-15 colon
[20] = system: P388 leukemia
[21] = system: OVCAR-3 ovarian
[22] = system: NCI/ADR-RES ovarian
[23] = system: DLD-1 colon
[24] = system: XF 498 CNS
[25] = system: K-562 leukemia
[26] = system: UACC-257 melanoma
[27] = system: M19-MEL melanoma
[28] = system: SK-MEL-5 melanoma
[29] = system: HOP-18 NSCLC
[30] = system: RPMI-8226 leukemia
[31] = system: OVCAR-5 ovarian
[32] = system: KM20L2 colon
[33] = system: HOP-92 NSCLC
[34] = system: OVCAR-4 ovarian
[35] = system: IGROV1 ovarian
[36] = system: NCI-H23 lung
[37] = system: OVCAR-8 ovarian
[38] = system: KM12 colon
[39] = system: HCT-116 colon
[40] = system: U251 CNS
[41] = system: DMS 114 small cell lung
[42] = system: SN12K1 renal
[43] = system: SF-268 CNS
[44] = system: UO-31 renal
[45] = system: SNB-19 CNS
[46] = system: MOLT-4 leukemia
[47] = system: NCI-H226 lung
[48] = system: NCI-H460 lung
[49] = system: SF-295 CNS
[50] = system: SNB-78 CNS
[51] = system: CAKI-1 renal
[52] = system: HL-60(TB) leukemia
[53] = system: SNB-75 CNS
[54] = system: HCC-2998 colon
[55] = system: A549 NSCLC
[56] = system: HOP-62 NSCLC
[57] = system: SF-539 CNS
[58] = system: RXF-631 renal
[59] = system: ACHN renal
[60] = system: SR leukemia
[61] = system: TK-10 renal
[62] = system: LXFL 529 NSCLC
[63] = system: 786-0 renal
[64] = system: M14 melanoma

## COc1ccc(N[C@@H]2c3cc4c(cc3C(c3cc(OC)c(O)c(OC)c3)[C@H]3C(=O)OCC32)OCO4)cc1OC (some centres undefined)
[1]
  TGI: > 25.3 µM
[2]
  TGI: > 100 µM
[3]
  TGI: > 100 µM
[4]
  TGI: > 100 µM
[5]
  TGI: > 40.7 µM
[6]
  TGI: 10.3 µM
[7]
  TGI: > 36.3 µM
[8]
  TGI: > 39.2 µM
[9]
  TGI: > 39.3 µM
[10]
  TGI: > 30.4 µM
[11]
  TGI: > 72.9 µM
[12]
  TGI: > 26.9 µM
[13]
  TGI: > 100 µM
[14]
  TGI: > 100 µM
[15]
  TGI: > 100 µM
[16]
  TGI: > 100 µM
[17]
  TGI: > 20.7 µM
[18]
  TGI: > 52.1 µM
[19]
  TGI: > 100 µM
[20]
  TGI: 10.9 µM
[21]
  TGI: > 28.4 µM
[22]
  TGI: > 100 µM
[23]
  TGI: > 25.7 µM
[24]
  TGI: > 61.8 µM
[25]
  TGI: > 100 µM
[26]
  TGI: 38.5 µM
[27]
  TGI: > 100 µM
[28]
  TGI: > 31.7 µM
[29]
  TGI: > 64.2 µM
[30]
  TGI: > 31.7 µM
[31]
  TGI: > 100 µM
[32]
  TGI: > 100 µM
[33]
  TGI: > 100 µM
[34]
  TGI: > 100 µM
[35]
  TGI: > 75.7 µM
[36]
  TGI: 1.92 µM
[37]
  TGI: > 100 µM
[38]
  TGI: > 21.8 µM
[39]
  TGI: > 42.7 µM
[40]
  TGI: > 67.5 µM
[41]
  TGI: > 21.9 µM
[42]
  TGI: > 34.8 µM
[43]
  TGI: > 56.7 µM
[44]
  TGI: > 100 µM
[45]
  TGI: > 79.2 µM

## CCCCCCCCCCCCCCCCCCOCC(O)CO (centres undefined)
[1]
  TGI: 20.9 µM
[2]
  TGI: > 7.73 µM
[3]
  TGI: > 17 µM
[4]
  TGI: > 25 µM
[5]
  TGI: > 21.1 µM
[46]
  TGI: > 25 µM
[47]
  TGI: > 24.2 µM
[6]
  TGI: > 25 µM
[7]
  TGI: > 25 µM
[8]
  TGI: > 25 µM
[9]
  TGI: > 22.5 µM
[10]
  TGI: > 25 µM
[11]
  TGI: > 25 µM
[12]
  TGI: > 24.1 µM
[13]
  TGI: > 25 µM
[14]
  TGI: > 14.1 µM
[15]
  TGI: > 3.96 µM
[16]
  TGI: > 25 µM
[17]
  TGI: > 15.8 µM
[48]
  TGI: > 23 µM
[18]
  TGI: > 25 µM
[19]
  TGI: > 25 µM
[20]
  TGI: > 14.1 µM
[49]
  TGI: > 25 µM
[21]
  TGI: > 25 µM
[22]
  TGI: > 25 µM
[23]
  TGI: > 25 µM
[24]
  TGI: > 25 µM
[50]
  TGI: > 25 µM
[25]
  TGI: > 25 µM
[51]
  TGI: > 5.39 µM
[26]
  TGI: > 25 µM
[27]
  TGI: 24.6 µM
[28]
  TGI: 3.65 µM
[29]
  TGI: > 2.5 µM
[52]
  TGI: > 21.4 µM
[30]
  TGI: > 25 µM
[53]
  TGI: 24.8 µM
[54]
  TGI: > 25 µM
[31]
  TGI: > 25 µM
[32]
  TGI: > 25 µM
[33]
  TGI: 24.7 µM
[34]
  TGI: > 25 µM
[35]
  TGI: > 23.7 µM
[55]
  TGI: 5.32 µM
[36]
  TGI: > 25 µM
[37]
  TGI: > 25 µM
[38]
  TGI: > 25 µM
[39]
  TGI: > 25 µM
[40]
  TGI: > 25 µM
[41]
  TGI: > 25 µM
[56]
  TGI: 22.7 µM
[42]
  TGI: > 25 µM
[43]
  TGI: > 25 µM
[44]
  TGI: 25 µM
[57]
  TGI: > 25 µM
[45]
  TGI: > 25 µM

## CCOC(=O)CCn1cnc(N)n1
[1]
  TGI: > 100 µM
[2]
  TGI: > 100 µM
[58]
  TGI: > 100 µM
[59]
  TGI: > 100 µM
[3]
  TGI: > 100 µM
[5]
  TGI: > 100 µM
[46]
  TGI: > 100 µM
[47]
  TGI: > 100 µM
[7]
  TGI: > 100 µM
[60]
  TGI: > 100 µM
[8]
  TGI: > 100 µM
[9]
  TGI: > 100 µM
[10]
  TGI: > 100 µM
[11]
  TGI: > 100 µM
[12]
  TGI: > 100 µM
[13]
  TGI: > 100 µM
[14]
  TGI: > 100 µM
[61]
  TGI: > 100 µM
[16]
  TGI: > 100 µM
[17]
  TGI: > 100 µM
[48]
  TGI: > 100 µM
[18]
  TGI: > 100 µM
[19]
  TGI: > 100 µM
[62]
  TGI: > 100 µM
[49]
  TGI: > 100 µM
[21]
  TGI: > 100 µM
[23]
  TGI: > 100 µM
[63]
  TGI: > 100 µM
[24]
  TGI: > 100 µM
[50]
  TGI: > 100 µM
[25]
  TGI: > 100 µM
[51]
  TGI: > 100 µM
[26]
  TGI: > 100 µM
[27]
  TGI: > 100 µM
[28]
  TGI: > 100 µM
[29]
  TGI: > 100 µM
[52]
  TGI: > 100 µM
[30]
  TGI: > 100 µM
[53]
  TGI: > 100 µM
[54]
  TGI: > 100 µM
[31]
  TGI: > 100 µM
[32]
  TGI: > 100 µM
[33]
  TGI: > 100 µM
[34]
  TGI: > 100 µM
[64]
  TGI: > 100 µM
[35]
  TGI: > 100 µM
[55]
  TGI: > 100 µM
[36]
  TGI: > 100 µM
[37]
  TGI: > 100 µM
[38]
  TGI: > 100 µM
[39]
  TGI: > 100 µM
[40]
  TGI: > 100 µM
[41]
  TGI: > 100 µM
[56]
  TGI: > 100 µM
[44]
  TGI: > 100 µM
[57]
  TGI: > 100 µM
[45]
  TGI: > 100 µM
